target: PD-1/PD-L1 (Homo sapiens (Human), UniProt Q9NZQ7); experiment: PD-1/PD-L1 binding assay (HTRF)
Procedure, shortened: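 HTRF read-out (665/620 nm) after 60 min at 25 °C with 1 nM Eu anti-human IgG and 20 nM APC anti-His. Beforehand, inhibitors were preincubated 40 min with Fc-PD-1 (25-167, […] as listed) and His-PD-L1 (19-238, 10 nM) in PBS pH 7.4 with Tween-20, BSA, 1% DMSO; IC50 from log-concentration curve.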

Sequence of PD-1/PD-L1 (Q9NZQ7 19-238): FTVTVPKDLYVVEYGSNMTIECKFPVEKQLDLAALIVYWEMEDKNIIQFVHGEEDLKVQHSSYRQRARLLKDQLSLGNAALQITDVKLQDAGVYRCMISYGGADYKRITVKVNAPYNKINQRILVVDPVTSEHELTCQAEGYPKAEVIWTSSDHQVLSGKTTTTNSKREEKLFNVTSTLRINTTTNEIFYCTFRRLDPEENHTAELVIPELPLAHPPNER

IC50, ≤ 10 nM:
Cn1c(C(=O)Nc2cccc(-c3cccc(-c4nc5c(o4)CN(C(=O)CN4CC(O)C4)C5)c3Cl)c2Cl)nc2c1CCN(CCC1CCC(C(=O)O)CC1)C2 (stereo not shown) [Compound 170, 4-(2-(2-(2,2′-dichloro-3′-(5-(2-(3-hydroxyazetidin-1-yl)acetyl)-5,6-dihydro-4H-pyrrolo[3,4-d]oxazol-2-yl)biphenyl-3-ylcarbamoyl)-1-methyl-6,7-dihydro-1H-imidazo[4,5-c]pyridin-5(4H)-yl)ethyl)cyclohexane-1-carboxylic acid]
Cc1c(NC(=O)c2nc3c(n2C)CCN(C[C@H](C)O)C3)cccc1-c1cccc(NC(=O)c2nc3c(n2C)CCN(C2CCC(C)(C(=O)O)CC2)C3)c1Cl (single isomer, unassigned) [143 (compound 143-1)]
CN1CCc2c(nc(C(=O)Nc3cccc(-c4cccc(NC(=O)c5nc6c(n5C)CCN(CCC5CCC(C(=O)O)CC5)C6)c4Cl)c3Cl)n2C)C1 (stereo not shown) [Compound 77-1, 4-(2-(2-((2,2′-dichloro-3′-(1,5-dimethyl-4,5,6,7-tetrahydro-1H-imidazo[4,5-c]pyridine-2-carboxamido)-[1,1′-biphenyl]-3-yl)carbamoyl)-1-methyl-1,4,6,7-tetrahydro-5H-imidazo[4,5-c]pyridin-5-yl)ethyl)cyclohexane-1-carboxylic acid]
Cn1c(C(=O)Nc2cccc(-c3cccc(NC(=O)c4nc5c(n4C)CCN(C[C@H]4CC[C@@H](C(=O)O)CC4)C5)c3Cl)c2Cl)nc2c1CCN(CC1CC1)C2 [Example 71, cis-4-((2-((2,2′-dichloro-3′-(5-(cyclopropylmethyl)-1-methyl-4,5,6,7-tetrahydro-1H-imidazo[4,5-c]pyridine-2-carboxamido)-[1,1′-biphenyl]-3-yl)carbamoyl)-1-methyl-1,4,6,7-tetrahydro-5H-imidazo[4,5-c]pyridin-5-yl)methyl)cyclohexane-1-carboxylic acid]
Cn1c(C(=O)Nc2cccc(-c3cccc(NC(=O)c4nc5c(n4C)CCN(C4CCCC4)C5)c3Cl)c2Cl)nc2c1CCN(CC[C@H]1CC[C@H](C(=O)O)CC1)C2 [Example 90, trans-4-(2-(2-((2,2′-dichloro-3′-(5-cyclopentyl-1-methyl-4,5,6,7-tetrahydro-1H-imidazo[4,5-c]pyridine-2-carboxamido)-[1,1′-biphenyl]-3-yl)carbamoyl)-1-methyl-1,4,6,7-tetrahydro-5H-imidazo[4,5-c]pyridin-5-yl)ethyl)cyclohexane-1-carboxylic acid]
Cc1c(NC(=O)c2nc3c(n2C)CCN(C[C@H](C)O)C3)cccc1-c1cccc(NC(=O)c2nc3c(n2C)CCN(C2CCOCC2)C3)c1Cl [Example 47, (S)—N-(2′-chloro-2-methyl-3′-(1-methyl-5-(tetrahydro-2H-pyran-4-yl)-4,5,6,7-tetrahydro-1H-imidazo[4,5-c]pyridine-2-carboxamido)biphenyl-3-yl)-5-(2-hydroxypropyl)-1-methyl-4,5,6,7-tetrahydro-1H-imidazo[4,5-c]pyridine-2-carboxamide]
Cc1c(NC(=O)c2nc3c(n2C)CCN(C2CCOCC2)C3)cccc1-c1cccc(NC(=O)c2nc3c(n2C)CCN(C2CCC(C)(C(=O)O)CC2)C3)c1Cl (single isomer, unassigned) [142 (compound 142-1), 4-(2-((2-chloro-2′-methyl-3′-(1-methyl-5-(tetrahydro-2H-pyran-4-yl)-4,5,6,7-tetrahydro-1H-imidazo[4,5-c]pyridine-2-carboxamido)-[1,1′-biphenyl]-3-yl)carbamoyl)-1-methyl-1,4,6,7-tetrahydro-5H-imidazo[4,5-c]pyridin-5-yl)-1-methylcyclohexane-1-carboxylic acid]
